Measured values from US6613317B1, “Volatile attractants for diabrotica species” (priority 1988, dated 2003).
Marks after values point to notes of the source that are not given here.

Tests used:
[1] = system: northern corn rootworm (NCR); test: Sticky trap attraction in corn, phenylethanol analogues (Example 6); type: in vivo, Diabrotica barberi; details: four replicates; for Mean number of NCR per trap (± standard deviation): Table 20, 100 mg per trap, 24 hour
Description: (§1) Test chemicals (purchased from Aldrich Chemical Co.; Milwaukee, Wis.) were applied by capillary micropipettes to cotton dental wicks that were attached to tops of 1.0 liter cylindrical paper cartons covered with TangleTrap™, Grand Rapids, Mich. The trapping techniques used were as previously described in Example 1. Unless otherwise indicated, all treatments were made at a dosage of 100 mg or 100 μL of attractant per trap. Control traps had untreated wicks. Four replicates of treated and untreated traps were positioned randomly 10 meters apart on top of 1 m high posts along the edges of 25-50 ha. fields of hybrid corn (Zea mays), infested with adult NCR, SCR, and WCR beetles. Several experiments detailed in the Tables were made in a 0.4 ha plot of sweet corn (Illini X-tra Sweet).
(§2) Attraction of Diabrotica species adults of the sticky traps was measured by the mean number of beetles caught after 1 day (ca. 24 hours) exposure. The significance of the treatments was determined by analysis of variance and the individual means were separated by Duncan's multiple range test (Statistical Package for the Social Sciences, Nie, et al., 2nd. ed. McGraw-Hill, New York (1975). The data was logarithmically transformed for statistical analysis. Means and standard deviations are presented for the untransformed data. Significance levels were set at P=0.05 for all statistical analyses.

[2] = system: western corn rootworm (WCR) adults; test: Sticky trap attraction in corn, estragole analogues (Example 3); type: in vivo, Diabrotica virgifera virgifera; details: 100 mg per trap; for Mean number of WCR per sticky trap (±standard deviation) after 24 hours / Mean number of WCR adults per sticky trap (±standard deviation) after 24 hours: n = 4
Description: as §1, with “chemicals” for “chemicals (purchased from Aldrich Chemical Co.; Milwaukee, Wis.)”, “Cinnamyl alcohol, 4-methoxycinnamaldehyde, cinnamyl acetate, and 4-(4′methoxyphenyl)-3-butene-2-one which are solids at ambient temperature were prepared as standard w/v solutions in acetone prior to dosing the cotton wicks. All” for “Unless otherwise indicated, all”
as §2

[3] = system: southern corn rootworm (SCR) adults; test: as above; type: in vivo, Diabrotica undecimpunctata howardi; details: 100 mg per trap, n = 4
Description: as §1, with “chemicals” for “chemicals (purchased from Aldrich Chemical Co.; Milwaukee, Wis.)”, “Cinnamyl alcohol, 4-methoxycinnamaldehyde, cinnamyl acetate, and 4-(4′methoxyphenyl)-3-butene-2-one which are solids at ambient temperature were prepared as standard w/v solutions in acetone prior to dosing the cotton wicks. All” for “Unless otherwise indicated, all”
as §2

[4] = system: southern corn rootworm (SCR) adults; test: Sticky trap attraction in sweet corn plots (Example 1); type: in vivo, Diabrotica undecimpunctata howardi; details: August first year, single compounds 100 mg per trap
Description: (§3) The attraction of Diabrotica species to single-component and multicomponent lures was evaluated in corn fields. The field experiments on attraction of SCR and WCR adults were conducted in 0.405-ha (1-acre) plots of “Illini Xtra Sweet” corn grown on the University of Illinois South Farms at Urbana, Ill., over a two year period. Most of the tests were conducted in August to correspond with the peak silk-feeding and oviposition periods of corn rootworm adults in central Illinois. In both years, the sweet corn plot was adjacent to a 0.405-ha trap crop of C. maxima cultivar “Blue Hubbard”, to provide high densitites of SCR and WCR adults in the corn plots (Howe, et al., Environ. Entomol., 5:745-751 (1976), Lampman, et al., J. Chem. Ecol., 13:959-975 (1987).
(§4) Attraction of Diabrotica species to volatile compounds was measured by the average number of beetles cought during a 24-h period on 1.0-liter cylindrical paper cartons (15.2 cm high, 27.9 cm circumference) which were evenly coated with clear insect adhesive, TangleTrap™ (Tanglefood Co., Grand Rapids, Mich.) The candidate attractants were applied by capillary micropiettes to cotton dental wicks (13 mm long by 6 mm diameter) that were previously impregnated with mineral oil to prolong volatilization. The chemicals were purchased from Aldrich Chemical Co., (Milwaukee, Wis.) and assayed by gas chromatography as >97% pure. Indole, a solid at ambient temperatures (m.p. 52-54° C.), was dissolved in glass-distilled acetone before dosing the cotton wicks. For dosage-acticity tests, the various components were mixed in equal quantities by weight and diluted to the appropriate dosage with acetone. Treated and untreated (control) wicks were attached to the top of the paper cartons with TangleTrap™ and the inverted traps were placed on 1-m-high posts between the sweet corn rows. Four replicates of each treatment and a control were conducted in a randomized complete block desgin. The sticky traps within a block (ca. 50-m row of corn) were 5-10 m apart (depending on the number of treatments in a particular test) and the blocks were 3 m apart. The traps were baited and placed in the field between 1000 and 1300 hours and beetle counts were taken after 24 h. The significance of treatments was determined by analysis of variance and the individual means were separated by Duncan's multiple range test (Statistical Package for Social Sciences (SPSS) (Nie, et al., SPSS: statistical package for the social sciences, 2nd ed. McGraw-Hill, N.Y. (1975)). Student's t test was used for comparisons of two means (Sokal, et al., Biometry, Freeman, San Francisco (1969). Significance levels were set at P=0.05 at all statistical analyses.
(§5) The initial field test in August of the first year evaluated the response of SCR and WCR adults of a mixture of veratrole (V), indole (I), phenylacetaldehyde (P), trans-anethole (A), and eugenol (E) (=VIPAE mixture), as well as to the individual components. Each component in the VIPAE mixture was present at a dosage of 20 mg per trap and was compared with the individual components at 100 mg per trap. The response of SCR and WCR adults to a range of VIPAE doses, 1-300 mg, was conducted on the following day. Fifty SCR adults were removed from each 100-mg VIPAE trap, and returned to the laboratory for sex determination. Additional analyses in August evaluated the reduction in trap catches produced by the sequential removal of the individual components from the VIPAE lure. After the primary components of the initial lure were determined, a modified multicomponent lure consisting of veratrole, indole, and phenylacetaldehyde (=VIP mixture) was compared with its individual components to determine whether the attraction of SCR adults was the result of interactive or additive factors. The attraction and synergistic response of SCR adults of the VIP mixture was verified by tests conducted in August of the following year. […]

[5] = system: western corn rootworm (WCR) adults; test: as above; type: in vivo, Diabrotica virgifera virgifera; details: August first year, single compounds 100 mg per trap
Description: as §3, §4, §5

[6] = South Farms, 24 h, mixture 20 mg of each component, n = 4

## COc1ccc(CCN)cc1 [4-methoxyphenylethylamine]
[1]
  Mean number of NCR per trap (± standard deviation): 24.2 ± 15.4a per trap

## COCc1ccc(OC)cc1 [V, 4-methoxy benzyl methyl ether]
[2]; August 29
  Relative percent activity as compared with the highest mean in the column (WCR): 32%
  Mean number of WCR per sticky trap (±standard deviation) after 24 hours: 46.7 ± 29.6 per sticky trap
[2]; July 30
  Relative percent activity as compared with the highest mean in the column (WCR): 46%
  Mean number of WCR per sticky trap (±standard deviation) after 24 hours: 37.7 ± 23.4 per sticky trap

## COc1ccc(C=CC#N)cc1 [IX, 4-methoxycinnamonitrile]
[2]; August 4 second year
  Mean number of WCR adults per sticky trap (±standard deviation) after 24 hours: 196.0 ± 145.3^de per sticky trap
[2]; August 5 first year
  Mean number of WCR adults per sticky trap (±standard deviation) after 24 hours: 59.0 ± 32.1^d per sticky trap
[3]; August 4 second year
  Mean number of SCR adults per sticky trap (±standard deviation) after 24 hours: 4.0 ± 2.2^ab per sticky trap
[3]; August 5 first year
  Mean number of SCR adults per sticky trap (±standard deviation) after 24 hours: 6.5 ± 3.0^a per sticky trap

## CCCc1ccc(OC)cc1 [IV, 4-methoxy-1-propylbenzene]
[2]; July 30
  Relative percent activity as compared with the highest mean in the column (WCR): 37%
  Mean number of WCR per sticky trap (±standard deviation) after 24 hours: 30.5 ± 11.0 per sticky trap

## NCCCc1ccccc1 [phenylpropylamine]
[1]
  Mean number of NCR per trap (± standard deviation): 131.5 ± 16.5c per trap

## C=Cc1ccc(OC)cc1 [III, 4-methoxy-1-vinyl benzene]
[2]; August 29
  Relative percent activity as compared with the highest mean in the column (WCR): 15%
  Mean number of WCR per sticky trap (±standard deviation) after 24 hours: 21.5 ± 6.5 per sticky trap
[2]; July 30
  Relative percent activity as compared with the highest mean in the column (WCR): 40%
  Mean number of WCR per sticky trap (±standard deviation) after 24 hours: 32.2 ± 13.5 per sticky trap

## NCCCCc1ccccc1 [phenylbutylamine]
[1]
  Mean number of NCR per trap (± standard deviation): 12.2 ± 6.1a per trap

## COc1ccc(C=CC(C)=O)cc1 [XVI, 4-(4′-methoxyphenyl)-3-butene-2-one]
[2]; September 11
  Mean number of WCR adults per sticky trap (±standard deviation) after 24 hours: 2.0 ± 3.7^a per sticky trap
[3]; September 11
  Mean number of SCR adults per sticky trap (±standard deviation) after 24 hours: 1.0 ± 0.8^a per sticky trap

## NCc1ccccc1 [benzylamine]
[1]
  Mean number of NCR per trap (± standard deviation): 57.5 ± 29.6b* per trap

## CC(=O)C=Cc1ccccc1 [XVII, phenyl-3-butone-2-one ketone]
[2]; September 11
  Mean number of WCR adults per sticky trap (±standard deviation) after 24 hours: 0.0 per sticky trap
[3]; September 11
  Mean number of SCR adults per sticky trap (±standard deviation) after 24 hours: 5.0 ± 3.7^b per sticky trap

## NCCc1ccccc1 [phenylethylamine]
[1]
  Mean number of NCR per trap (± standard deviation): 206.7 ± 32.3d per trap
[1]; day 1 after single 100 mg dosage on cotton wick
  Mean number (control subtracted) of NCR per trap: 85.9 per trap
[1]; day 2 after single 100 mg dosage on cotton wick
  Mean number (control subtracted) of NCR per trap: 125.3 per trap
[1]; day 3 after single 100 mg dosage on cotton wick
  Mean number (control subtracted) of NCR per trap: 39.4 per trap
[1]; day 4 after single 100 mg dosage on cotton wick
  Mean number (control subtracted) of NCR per trap: 27.5 per trap
[1]; day 5 after single 100 mg dosage on cotton wick
  Mean number (control subtracted) of NCR per trap: 155.4 per trap
[1]; day 6 after single 100 mg dosage on cotton wick
  Mean number (control subtracted) of NCR per trap: 44.2 per trap
[1]; day 7 after single 100 mg dosage on cotton wick
  Mean number (control subtracted) of NCR per trap: 38.4 per trap
[1]; day 8 after single 100 mg dosage on cotton wick
  Mean number (control subtracted) of NCR per trap: 17.5 per trap
[1]; day 11 after single 100 mg dosage on cotton wick
  Mean number (control subtracted) of NCR per trap: 3.8 per trap

## COc1ccc(CC#N)cc1 [VII, 4-methoxyphenyl acetonitrile]
[2]; August 29
  Relative percent activity as compared with the highest mean in the column (WCR): 78%
  Mean number of WCR per sticky trap (±standard deviation) after 24 hours: 114.5 ± 83.4 per sticky trap
[2]; July 30
  Relative percent activity as compared with the highest mean in the column (WCR): 46%
  Mean number of WCR per sticky trap (±standard deviation) after 24 hours: 37.5 ± 8.4 per sticky trap

## CC=Cc1cccc(OC)c1 [II, 4-methoxy-2-propenylbenzene]
[2]; July 30
  Relative percent activity as compared with the highest mean in the column (WCR): 58%
  Mean number of WCR per sticky trap (±standard deviation) after 24 hours: 48.0 ± 23.3 per sticky trap
[4]; [6]
  Mean number of SCR per trap (±standard deviation): 1.5 ± 1.0 per trap
[4]; mixture 20 mg each component
  relative percent activity of the mean SCR trap catch as compared with the highest mean value in the column: 7%
[5]; [6]
  Mean number of WCR per trap (±standard deviation): 9.0 ± 4.3 per trap
[5]; mixture 20 mg each component
  relative percent activity of the mean WCR trap catch as compared with the highest mean value in the column: 100%

## C=CCc1ccccc1 [VIII, allylbenzene]
[2]; August 4 second year
  Mean number of WCR adults per sticky trap (±standard deviation) after 24 hours: 10.0 ± 1.4^a per sticky trap
[2]; August 5 first year
  Mean number of WCR adults per sticky trap (±standard deviation) after 24 hours: 1.0 ± 0.8^a per sticky trap
[3]; August 4 second year
  Mean number of SCR adults per sticky trap (±standard deviation) after 24 hours: 12.4 ± 7.2^b per sticky trap
[3]; August 5 first year
  Mean number of SCR adults per sticky trap (±standard deviation) after 24 hours: 24.7 ± 16.9^a per sticky trap

## COc1ccccc1C=CC=O [XIII, 2-methoxycinnamaldehyde]
[2]; August 4 second year
  Mean number of WCR adults per sticky trap (±standard deviation) after 24 hours: 53.0 ± 14.7^c per sticky trap
[3]; August 4 second year
  Mean number of SCR adults per sticky trap (±standard deviation) after 24 hours: 12.2 ± 9.9^b per sticky trap
